Four compounds from publication PMC9867442, “Indole Derivatives Bearing Imidazole, Benzothiazole-2-Thione or Benzoxazole-2-Thione Moieties—Synthesis, Structure and Evaluation of Their Cytoprotective, Antioxidant, Antibacterial and Fungicidal Activities” (Molecules, 2023) can be followed below.

Data set [1] can be described thus: Ferrous ions (Fe2+) chelating activity (ferrozine). As to conditions: 0.1 mg/mL, 10 min, room temperature. The procedure:
Ferrous ions (Fe^2+) chelating activity was evaluated by inhibition of the formation of Fe^2+-ferrozine complex after incubation of the compounds tested with Fe^2+. The Fe^2+-chelating ability of compounds tested was determined by the absorbance of the ferrous ion-ferrozine complex at 562 nm. In brief, 0.1 mg/mL concentration of the compounds tested in 0.2 mL ethyl alcohol were added to a solution of 0.6 mM FeCl2 (0.05 mL). EDTA (ethylenediaminetetraacetic acid) was used as the standard EDTA chelating agent. The reaction was started by the addition of 5 mM ferrozine (0.05 mL) in ethyl alcohol and shaken vigorously immediately. The samples were stored for 10 min at room temperature (~22 °C). Following incubation, the absorbance (Abs) of the solutions was measured at 562 nm in a spectrophotometer. The percentage of inhibition of ferrozine—Fe^2+ complex formation was calculated using the equation: Fe^2+ chelating effect (%) = [1 − (Abs1/Abs0)] × 100% where Abs0 is the absorbance of the sample without the tested compound and Abs1 is the absorbance in the presence of the compound tested. Each sample was made in triplicate, and three independent experiments were performed.

The test system of a further data set is Bacillus subtilis. In words: Antibacterial well-diffusion method. As to conditions: 0.1 mL of compound in DMSO, 48 h, 27 °C. It counts as cell-based. The procedure: (§1) The antimicrobial properties of compounds were determined against selected bacteria: Micrococcus luteus, Bacillus subtilis, Escherichia coli and Pseudomonas fluorescens which came from the collection of Pure Cultures of the Facility of Microbiology of the Department of Soil Science and Microbiology of the Poznan University of Life Sciences. The well-diffusion method was used to evaluate the antimicrobial properties of compounds. 6 mL each of liquidized broth medium was poured into sterile Petri dishes and allowed to solidify. After which, two sterile glass rings with a diameter of 0.5 cm were placed on the surface of each plate. Then 20 mL each of liquid broth medium containing suspensions of the tested bacterial strains at a density of 10^7 cells/cm3, obtained from 48-h cultures on broth […], was introduced. After the medium solidified, the glass rings were removed with a pencil, obtaining two wells on each plate. 0.1 mL of compound dissolved in pure dimethyl sulphoxide was introduced into one well, and 0.1 mL of pure dimethyl sulphoxide was introduced into the other well, which was as a control. Each compound was tested in four replicates. The plates were incubated for 48 h in a thermostat at 27 °C for M. luteus, B. subtilis and P. fluorescens cultures, and the E. coli culture at 37 °C. At the end of the incubation, the diameters of growth inhibition of the tested strains were measured using calipers.

The test system of a further data set is Escherichia coli. In words: Antibacterial well-diffusion method. It counts as cell-based. The note with it: 0.1 mL of compound in DMSO, 48 h, 37 °C. The procedure:
as §1
In general terms: Agar diffusion results depend on both activity and mobility in agar.

A further data set has as its system Micrococcus luteus. Kind of data set: Antibacterial well-diffusion method. It counts as cell-based. The note with it: Micrococus luteus, 0.1 mL of compound in DMSO, 48 h, 27 °C. The procedure: as §1
The next data set relates to Pseudomonas fluorescens. Kind of data set: Antibacterial well-diffusion method. The note with it: 0.1 mL of compound in DMSO, 48 h, 27 °C. It counts as cell-based. The procedure: as §1
The next data set relates to Coniophora puteana (Cp). In words: Antifungal agar-plate method. In kind it is cell-based. The note with it: for inhibition of growth at 0.0001 % / inhibition of growth at 0.001 % / inhibition of growth at 0.01 % / inhibition of growth at 0.1 %: Coniophora puteana, read-out: Antifungal activity (inhibition of mycelial growth). The procedure:
(§2) Fungal strains: Coriolus versicolor (Cv), Poria placenta (Pp), Coniophora puteana (Cp) and Gloeophyllum trabeum (Gt) were used as a test organism for the experimental determination of the antifungal activity of 1–11. The fungus were obtained from the collection of the Department of Wood Chemical Technology, Faculty of Forestry and Wood Technology, Poznań, University of Life Sciences, Poland. The fungal growth rates were measured in 90 mm-diameter plastic dishes using the agar-plate method, described by Ważny and Thorton. Five concentrations of gramine and its derivatives in the range of 0.1% to 0.00001% were studied. The compound was applied on the agar (2% agar and 5% malt-extract) prepared on the Petri dish and previously autoclaved. The combination of the compound and fungus was repeated three times. Given sample was centrally inoculated with a 5 mm diameter disc taken from the submargin of 5-day-old malt agar plates. The plates were incubated in darkness at 21 ± 2 °C and 70 ± 5% relative air humidity. The growth duration was determined by the total coverage of the reference plate. The radius of the area covered by the fungus compared with the reference agar plate was employed to calculate the effective doses, ED50, of preservative concentrations retarding the fungal growth rate by 50%.

The next data set deals with Coriolus versicolor (Cv). Kind of data set: Antifungal agar-plate method. In kind it is cell-based. As to conditions: for inhibition of growth at 0.0001 % / inhibition of growth at 0.001 % / inhibition of growth at 0.01 % / inhibition of growth at 0.1 %: Trametes versicolor, read-out: Antifungal activity (inhibition of mycelial growth). The procedure: as §2
For data set [2], the system named is Gloeophyllum trabeum (Gt). In words: Antifungal agar-plate method. In kind it is cell-based. As to conditions: for inhibition of growth at 0.0001 % / inhibition of growth at 0.001 % / inhibition of growth at 0.01 % / inhibition of growth at 0.1 %: Gloeophyllum trabeum, read-out: Antifungal activity (inhibition of mycelial growth). The procedure: as §2
The next data set deals with Poria placenta (Pp). In words: Antifungal agar-plate method. In kind it is cell-based. The note with it: for inhibition of growth at 0.0001 % / inhibition of growth at 0.001 % / inhibition of growth at 0.01 % / inhibition of growth at 0.1 %: read-out: Antifungal activity (inhibition of mycelial growth). The procedure:
as §2

For `Clc1ncn(Cc2c[nH]c3ccccc23)c1Cl` [Compound 7, 3-((4,5-dichloro-1H-imidazol-1-yl)methyl)-1H-indole], in data set [1], the Chelating activity result is “no chelating activity”. Moreover, the “Zone of Growth Inhibition” value is on record as 8.7 mm in the data set with Bacillus subtilis, 4.3 mm in the data set with Escherichia coli, 5 mm with Micrococcus luteus and 0 mm in the data set on Pseudomonas fluorescens. In addition, the inhibition of growth (commonly the relative decrease from the control value, in per cent) at 0.0001 % turned out to be 0% in the data set with Coniophora puteana (Cp) (concentration 0.0001%), 0% with Coriolus versicolor (Cv) (concentration 0.0001%), 28% in [2] (concentration 0.0001%) and 0% in the data set on Poria placenta (Pp) (concentration 0.0001%). The inhibition of growth at 0.001 % with Coniophora puteana (Cp) (concentration 0.001%) worked out at 46%; in the data set with Coriolus versicolor (Cv) (concentration 0.001%) it was 23%; in data set [2] (concentration 0.001%) it was 51%; in the data set on Poria placenta (Pp) (concentration 0.001%) it was 35%. The inhibition of growth at 0.01 % was 74% with Coniophora puteana (Cp) (concentration 0.01%), 96% in the data set with Coriolus versicolor (Cv) (concentration 0.01%), 91% in [2] (concentration 0.01%) and 78% with Poria placenta (Pp) (concentration 0.01%). For the same compound, the inhibition of growth at 0.1 % (in the data set on Coriolus versicolor (Cv) (concentration 0.1%); in [2] (concentration 0.1%)) was above 90% in each case.
With `S=c1oc2ccccc2n1Cc1c[nH]c2ccccc12` [Compound 11, 3-((1H-indol-3-yl)methyl)benzo[d]oxazole-2(3H)-thione], the melting point (commonly the temperature of the solid-liquid transition) lay in the range of 157 to 159 °C. The compound further gave a Chelating activity in data set [1] of 29%. Moreover, in the data set on Bacillus subtilis, the “Zone of Growth Inhibition” value is 0 mm. In the data set on Escherichia coli, the “Zone of Growth Inhibition” value turned out to be 2.7 mm. For the same compound, the “Zone of Growth Inhibition” value in the data set on Micrococcus luteus stood at 4 mm. For the same compound, in the data set on Pseudomonas fluorescens, the “Zone of Growth Inhibition” value was 0 mm. For the same compound, the inhibition of growth at 0.0001 % with Coniophora puteana (Cp) (concentration 0.0001%) amounted to 0%. Moreover, the inhibition of growth at 0.001 % in the data set on Coniophora puteana (Cp) (concentration 0.001%) is 43%. Also, in the data set with Coniophora puteana (Cp) (concentration 0.01%), the inhibition of growth at 0.01 % stood at 44%. In the data set with Coniophora puteana (Cp) (concentration 0.1%), the inhibition of growth at 0.1 % turned out to be 100%. Further, the inhibition of growth at 0.0001 % with Coriolus versicolor (Cv) (concentration 0.0001%) worked out at 0%. The inhibition of growth at 0.001 % in the data set on Coriolus versicolor (Cv) (concentration 0.001%) came to 2%. Moreover, the inhibition of growth at 0.01 % in the data set with Coriolus versicolor (Cv) (concentration 0.01%) was found to be 26%. The inhibition of growth at 0.1 % in the data set on Coriolus versicolor (Cv) (concentration 0.1%) was 100%. Also, the inhibition of growth at 0.0001 % in [2] (concentration 0.0001%) amounted to 17%. In addition, the inhibition of growth at 0.001 % in data set [2] (concentration 0.001%) is 39%. Further, the inhibition of growth at 0.01 % in [2] (concentration 0.01%) was 47%. Further, the inhibition of growth at 0.1 % in data set [2] (concentration 0.1%) was determined as 100%. Besides, the inhibition of growth at 0.0001 % with Poria placenta (Pp) (concentration 0.0001%) was determined as 0%. Moreover, the inhibition of growth at 0.001 % in the data set on Poria placenta (Pp) (concentration 0.001%) is 56%. Moreover, the inhibition of growth at 0.01 % in the data set with Poria placenta (Pp) (concentration 0.01%) was found to be 64%. The inhibition of growth at 0.1 % in the data set with Poria placenta (Pp) (concentration 0.1%) was determined as 100%.
“3-((2-phenyl-2,5-dihydro-1H-imidazol-1-yl)methyl)-1H-indole [Compound 8]” gave a Chelating activity in data set [1] of 40%. Further, the “Zone of Growth Inhibition” value with Bacillus subtilis is 3.7 mm; in the data set on Escherichia coli, 5 mm; with Micrococcus luteus, 8.6 mm; in the data set on Pseudomonas fluorescens, 0 mm. In addition, the “Antifungal activity (inhibition of mycelial growth)” value in the data set on Coniophora puteana (Cp) (concentration 0.0001%) is 0%; in the data set on Coniophora puteana (Cp) (concentration 0.001%) it was 0%; in the data set on Coniophora puteana (Cp) (concentration 0.01%) it was 48%; with Coniophora puteana (Cp) (concentration 0.1%), 100%; in the data set with Coriolus versicolor (Cv) (concentration 0.0001%), 7%; with Coriolus versicolor (Cv) (concentration 0.001%), 13%. Besides, the “Antifungal activity (inhibition of mycelial growth)” value with Coriolus versicolor (Cv) (concentration 0.01%) is reported as 41%; in the data set with Coriolus versicolor (Cv) (concentration 0.1%), 100%; in [2] (concentration 0.0001%) it was 13%; in data set [2] (concentration 0.001%), 18%; in data set [2] (concentration 0.01%) it was 53%; in data set [2] (concentration 0.1%), 100%. In addition, the “Antifungal activity (inhibition of mycelial growth)” value with Poria placenta (Pp) (concentration 0.0001%) was determined as 0%; in the data set with Poria placenta (Pp) (concentration 0.001%), 17%; in the data set on Poria placenta (Pp) (concentration 0.01%), 45%; in the data set with Poria placenta (Pp) (concentration 0.1%), 100%.
For `S=c1sc2ccccc2n1Cc1c[nH]c2ccccc12` [Compound 10, 3-((1H-indol-3-yl)methyl)benzo[d]thiazole-2(3H)-thione], the melting point lay in the range of 187 to 190 °C. This compound came in with a Chelating activity in data set [1] of 12%. The “Zone of Growth Inhibition” value in the data set with Bacillus subtilis worked out at 0 mm. Moreover, the “Zone of Growth Inhibition” value with Escherichia coli is 1 mm. Further, in the data set on Micrococcus luteus, the “Zone of Growth Inhibition” value came to 2.6 mm. The “Zone of Growth Inhibition” value in the data set on Pseudomonas fluorescens amounted to 0 mm. Besides, the inhibition of growth at 0.0001 % with Coniophora puteana (Cp) (concentration 0.0001%) stood at 0%. For the same compound, the inhibition of growth at 0.001 % with Coniophora puteana (Cp) (concentration 0.001%) stood at 40%. For the same compound, in the data set with Coniophora puteana (Cp) (concentration 0.01%), the inhibition of growth at 0.01 % came out at 57%. Also, the inhibition of growth at 0.1 % in the data set with Coniophora puteana (Cp) (concentration 0.1%) was determined as 100%. Also, the inhibition of growth at 0.0001 % with Coriolus versicolor (Cv) (concentration 0.0001%) was 0%. Also, the inhibition of growth at 0.001 % in the data set with Coriolus versicolor (Cv) (concentration 0.001%) came to 20%. Further, the inhibition of growth at 0.01 % in the data set with Coriolus versicolor (Cv) (concentration 0.01%) was 49%. Besides, the inhibition of growth at 0.1 % in the data set with Coriolus versicolor (Cv) (concentration 0.1%) was found to be 100%. In addition, the inhibition of growth at 0.0001 % in [2] (concentration 0.0001%) amounted to 0%. In addition, in [2] (concentration 0.001%), the inhibition of growth at 0.001 % came to 38%. In addition, the inhibition of growth at 0.01 % in [2] (concentration 0.01%) amounted to 59%. Further, the inhibition of growth at 0.1 % in [2] (concentration 0.1%) came out at 100%. In addition, the inhibition of growth at 0.0001 % in the data set with Poria placenta (Pp) (concentration 0.0001%) was 34%. Besides, the inhibition of growth at 0.001 % in the data set with Poria placenta (Pp) (concentration 0.001%) was found to be 54%. Besides, in the data set on Poria placenta (Pp) (concentration 0.01%), the inhibition of growth at 0.01 % worked out at 71%. In addition, the inhibition of growth at 0.1 % in the data set with Poria placenta (Pp) (concentration 0.1%) came out at 100%.
